Measured values published in PMC12584752, “Covalent fragment screening to inhibit the E3 ligase activity of bacterial NEL enzymes SspH1 and SspH2” (RSC Chemical Biology, 2025).

Legend:
[1] = target: T1, SspH1 expressed in HEK293T cells (Salmonella typhimurium, UniProt D0ZVG2); assay: In cellulo target engagement, IA-DTB chemoproteomics; assay type: cell-based; details: live HEK293T cells, 50 μM, four hours
T1 construct: SspH1 (aa 1–700) and SspH2 (aa 1–786) genes were cloned separately; expressed in transfected cells; host or cells: HEK293T
T1 sequence (D0ZVG2 whole entry, the tested form may be a part): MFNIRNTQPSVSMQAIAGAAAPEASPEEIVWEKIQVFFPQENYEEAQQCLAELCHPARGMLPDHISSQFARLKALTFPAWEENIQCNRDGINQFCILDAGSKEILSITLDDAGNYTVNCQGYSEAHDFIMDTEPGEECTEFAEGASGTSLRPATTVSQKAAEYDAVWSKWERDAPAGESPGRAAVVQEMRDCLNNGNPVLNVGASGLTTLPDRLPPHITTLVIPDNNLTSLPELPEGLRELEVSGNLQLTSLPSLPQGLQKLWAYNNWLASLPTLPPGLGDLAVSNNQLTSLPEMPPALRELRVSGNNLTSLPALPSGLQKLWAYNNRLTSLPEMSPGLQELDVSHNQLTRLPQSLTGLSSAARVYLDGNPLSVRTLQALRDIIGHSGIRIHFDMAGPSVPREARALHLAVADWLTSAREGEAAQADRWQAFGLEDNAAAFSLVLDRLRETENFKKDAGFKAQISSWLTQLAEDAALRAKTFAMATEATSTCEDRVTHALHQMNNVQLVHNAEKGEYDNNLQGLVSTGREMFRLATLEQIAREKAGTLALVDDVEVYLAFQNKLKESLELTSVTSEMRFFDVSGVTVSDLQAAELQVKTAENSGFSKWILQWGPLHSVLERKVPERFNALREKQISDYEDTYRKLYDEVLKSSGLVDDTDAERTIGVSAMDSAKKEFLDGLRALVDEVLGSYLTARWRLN
Procedure: (§1) Fig. 5 Characterisation of protein interactions by compounds 6 and 7. (A) SspH1 and SspH2 catalytic cysteine labelling with compound 6 (100–3.125 μM, 4 hours) in HEK293T lysate spiked with recombinant SspH1 and SspH2. Data are presented as mean ± SEM, n = 4. The curves were fitted with GraphPad Prism 10 using four parameter nonlinear regression with baseline correction to DMSO-treated samples. (B) SspH1 and SspH2 catalytic cysteine labelling with compound 7 (100–3.125 μM, 4 hours) in HEK293T lysate spiked with recombinant SspH1 and SspH2. Data are presented as mean ± SEM, n = 4. The curves were fitted with GraphPad Prism 10 using four parameter nonlinear regression with baseline correction to DMSO-treated samples. (C) Volcano plot of IA-DTB competition in SspH1 expressing HEK293T cells treated with compound 6 (50 μM, 4 hours). (D) Volcano plot of IA-DTB competition in SspH2 expressing HEK293T cells treated with compound 6 (50 μM, 4 hours). Data is shown as compared to DMSO treated samples, with competed peptides in the upper left-hand quadrant. […]
(§2) All cells were grown in DMEM media (Gibco, 41966-029) supplemented with FBS (ThermoFisher, A5256701) and Pen/Strep (Gibco, 15140-122) at 37 °C with 5% CO2. […] Protein concentrations were measured using a Rapid BCA Gold Protein Assay Kit (Thermo Scientific, A53226) and diluted to 1 mg mL^−1 with lysis buffer. […]

[2] = target: T2, SspH2 expressed in HEK293T cells (Salmonella typhimurium, UniProt D0ZPH9); assay: as above; assay type: cell-based; details: live HEK293T cells, 50 μM, four hours
T2 construct: SspH1 (aa 1–700) and SspH2 (aa 1–786) genes were cloned separately; expressed in transfected cells; host or cells: HEK293T
T2 sequence (D0ZPH9 1-786): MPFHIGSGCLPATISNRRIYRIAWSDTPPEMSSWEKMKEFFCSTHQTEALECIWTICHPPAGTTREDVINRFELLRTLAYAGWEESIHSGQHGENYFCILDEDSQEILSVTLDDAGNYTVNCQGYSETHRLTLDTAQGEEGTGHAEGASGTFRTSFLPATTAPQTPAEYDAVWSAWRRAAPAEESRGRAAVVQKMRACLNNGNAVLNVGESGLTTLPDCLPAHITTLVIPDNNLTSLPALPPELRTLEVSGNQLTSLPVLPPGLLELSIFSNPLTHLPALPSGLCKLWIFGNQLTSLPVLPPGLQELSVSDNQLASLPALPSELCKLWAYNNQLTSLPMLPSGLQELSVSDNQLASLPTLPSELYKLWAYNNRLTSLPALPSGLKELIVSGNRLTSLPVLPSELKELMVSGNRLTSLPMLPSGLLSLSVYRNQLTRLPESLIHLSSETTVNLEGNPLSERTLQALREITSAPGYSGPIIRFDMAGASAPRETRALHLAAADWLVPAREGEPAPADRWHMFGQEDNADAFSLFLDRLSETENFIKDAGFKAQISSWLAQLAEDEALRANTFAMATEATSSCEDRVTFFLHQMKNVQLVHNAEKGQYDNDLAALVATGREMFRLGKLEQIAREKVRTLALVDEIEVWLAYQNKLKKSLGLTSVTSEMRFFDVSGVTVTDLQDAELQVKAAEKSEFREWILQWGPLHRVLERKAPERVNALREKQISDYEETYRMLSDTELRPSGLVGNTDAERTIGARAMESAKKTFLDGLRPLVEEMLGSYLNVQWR
Procedure: as §1, §2

Cc1cc(-c2nc3ccccc3n2C2CCN(C(=O)CCl)CC2)cc(C)c1O.Cl [compound 6]
competition of IA-DTB labelling of catalytic cysteine C492 peptide of SspH1 [1]: strong competition | competition of IA-DTB labelling of C580 peptide of SspH2 [2]: strong competition
